Molecular target: T1, SIRT1 (Homo sapiens, UniProt Q96EB6)
T1 sequence (Q96EB6 1-747): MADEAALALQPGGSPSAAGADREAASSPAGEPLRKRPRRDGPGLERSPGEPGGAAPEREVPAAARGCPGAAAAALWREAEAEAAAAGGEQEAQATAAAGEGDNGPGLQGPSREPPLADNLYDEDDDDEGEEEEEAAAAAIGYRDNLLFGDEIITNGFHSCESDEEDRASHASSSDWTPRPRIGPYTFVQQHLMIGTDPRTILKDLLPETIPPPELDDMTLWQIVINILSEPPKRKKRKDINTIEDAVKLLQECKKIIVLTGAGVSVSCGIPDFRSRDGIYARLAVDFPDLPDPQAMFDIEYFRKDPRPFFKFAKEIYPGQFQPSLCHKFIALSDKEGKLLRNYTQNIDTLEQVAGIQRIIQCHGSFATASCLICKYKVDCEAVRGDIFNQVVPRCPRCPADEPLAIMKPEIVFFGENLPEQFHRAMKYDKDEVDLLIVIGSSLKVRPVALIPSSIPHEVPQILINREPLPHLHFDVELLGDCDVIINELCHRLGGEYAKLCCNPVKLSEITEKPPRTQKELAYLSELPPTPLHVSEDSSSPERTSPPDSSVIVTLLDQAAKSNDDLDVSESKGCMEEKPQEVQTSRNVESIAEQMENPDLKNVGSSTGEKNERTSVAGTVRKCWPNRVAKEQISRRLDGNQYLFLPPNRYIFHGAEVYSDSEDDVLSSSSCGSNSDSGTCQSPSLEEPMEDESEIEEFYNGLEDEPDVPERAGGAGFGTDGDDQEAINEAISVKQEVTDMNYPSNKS
Assay: Mass spectrometry based assay to identify modulators of SIRT1 activity (deacetylation of p53-based acetylated peptide substrate)
Format: biochemical
Conditions: 10 nM SIRT1, 0.5 μM peptide substrate, 120 μM βNAD+, 25 minutes at 25° C.; for EC1.5: SIRT1 activation
From the text: A mass spectrometry based assay was used to identify modulators of SIRT1 activity. The mass spectrometry based assay utilizes a peptide having 20 amino acid residues as follows: Ac-EE-K(biotin)-GQSTSSHSK(Ac)NleSTEG-K(5TMR)-EE-NH2 (SEQ ID NO: 1) wherein K(Ac) is an acetylated lysine residue and Nle is a norleucine. The peptide is labeled with the fluorophore 5TMR (excitation 540 nm/emission 580 nm) at the C-terminus. The sequence of the peptide substrate is based on p53 with several modifications. In addition, the methionine residue naturally present in the sequence was replaced with the norleucine because the methionine may be susceptible to oxidation during synthesis and purification.
The mass spectrometry assay is conducted as follows: 0.5 μM peptide substrate and 120 μM βNAD^+ is incubated with 10 nM SIRT1 for 25 minutes at 25° C. in a reaction buffer (50 mM Tris-acetate pH 8, 137 mM NaCl, 2.7 mM KCl, 1 mM MgCl2, 5 mM DTT, 0.05% BSA). Test compounds may be added to the reaction as described above. The SirT1 gene is cloned into a T7-promoter containing vector and transformed into BL21(DE3). After the 25 minute incubation with SIRT1, 10 μL of 10% formic acid is added to stop the reaction. Reactions are sealed and frozen for later mass spec analysis. Determination of the mass of the substrate peptide allows for precise determination of the degree of acetylation (i.e. starting material) as compared to deacetylated peptide (product).
A control for inhibition of sirtuin activity is conducted by adding 1 μL of 500 mM nicotinamide as a negative control at the start of the reaction (e.g., permits determination of maximum sirtuin inhibition). A control for activation of sirtuin activity is conducted using 10 nM of sirtuin protein, with 1 μL of DMSO in place of compound, to determine the amount of deacetylation of the substrate at a given timepoint within the linear range of the assay. This timepoint is the same as that used for test compounds and, within the linear range, the endpoint represents a change in velocity.
For the above assay, SIRT1 protein was expressed and purified as follows. The SirT1 gene was cloned into a T7-promoter containing vector and transformed into BL21(DE3). The protein was expressed by induction with 1 mM IPTG as an N-terminal His-tag fusion protein at 18° C. overnight and harvested at 30,000×g. Cells were lysed with lysozyme in lysis buffer (50 mM Tris-HCl, 2 mM Tris[2-carboxyethyl]phosphine (TCEP), 10 μM ZnCl2, 200 mM NaCl) and further treated with sonication for 10 min for complete lysis. The protein was purified over a Ni-NTA column (Amersham) and fractions containing pure protein were pooled, concentrated and run over a sizing column (Sephadex S200 26/60 global). The peak containing soluble protein was collected and run on an Ion-exchange column (MonoQ). Gradient elution (200 mM-500 mM NaCl) yielded pure protein. This protein was concentrated and dialyzed against dialysis buffer (20 mM Tris-HCl, 2 mM TCEP) overnight. The protein was aliquoted and frozen at −80° C. until further use.
Sirtuin modulating compounds that activated SIRT1 were identified using the assay described above and are shown below in Table 1. The EC1-5 values for the activating compounds are represented by A′ (EC1.5<250 nM), A (EC1.5≧250 nM and ≦1 uM), B (EC1.5>1 and ≦10 uM), or C (EC1.5>10 uM). The percent maximum fold activation is represented by A (Fold activation≧300%), B (Fold Activation≧150% and <300%), or C (Fold Activation<150%).

## O=C(Nc1ccccc1-c1nc2cccnc2s1)c1cc(OC2CNC2)cc(-c2ccccc2)n1 [Compound 6]
  FOLD ACT. (percent maximum fold activation): A (Fold activation≧300%)
  EC1.5: A (EC1.5≧250 nM and ≦1 uM)

## O=C(Nc1ccccc1-c1nc2cccnc2s1)c1cc(N2CCS(=O)(=O)CC2)nc(-c2ccccc2)n1 [Compound 16]
  FOLD ACT. (percent maximum fold activation): B (Fold Activation≧150% and <300%)
  EC1.5: A (EC1.5≧250 nM and ≦1 uM)

## CSCCNc1cc(C(=O)Nc2ccccc2-c2nc3cccnc3s2)nc(-c2ccccc2)n1 [Compound 45]
  FOLD ACT. (percent maximum fold activation): B (Fold Activation≧150% and <300%)
  EC1.5: B (EC1.5>1 and ≦10 uM)

## O=C(Nc1ccccc1-c1nc2cccnc2s1)c1cc(NCc2cccnc2)nc(-c2ccccc2)n1 [Compound 58]
  FOLD ACT. (percent maximum fold activation): A (Fold activation≧300%)
  EC1.5: A (EC1.5≧250 nM and ≦1 uM)

## Cc1nc(NCCN(C)C)cc(C(=O)Nc2ccccc2-c2nc3cccnc3s2)n1 [Compound 28]
  FOLD ACT. (percent maximum fold activation): A (Fold activation≧300%)
  EC1.5: B (EC1.5>1 and ≦10 uM)

## O=C1CN(c2cc(C(=O)Nc3ccccc3-c3nc4cccnc4s3)nc(-c3ccccc3)n2)CCN1 [Compound 149]
  FOLD ACT. (percent maximum fold activation): B (Fold Activation≧150% and <300%)
  EC1.5: A (EC1.5≧250 nM and ≦1 uM)

## O=C(Nc1ccccc1-c1nc2cccnc2s1)c1cc(CN2CCOCC2)nc(-c2ccccc2)n1 [Compound 10]
  FOLD ACT. (percent maximum fold activation): A (Fold activation≧300%)
  EC1.5: A (EC1.5≧250 nM and ≦1 uM)

## O=C(Nc1ccccc1-c1nc2cccnc2s1)c1cc(N2CCOCC2)nc(-c2ccccc2)n1 [Compound 2]
  FOLD ACT. (percent maximum fold activation): B (Fold Activation≧150% and <300%)
  EC1.5: A′ (EC1.5<250 nM)

## CC(=O)N1CCC(Nc2cc(C(=O)Nc3ccccc3-c3nc4cccnc4s3)nc(-c3ccccc3)n2)CC1 [Compound 116]
  FOLD ACT. (percent maximum fold activation): A (Fold activation≧300%)
  EC1.5: A′ (EC1.5<250 nM)

## O=C(Nc1ccccc1-c1nc2ccncc2s1)c1cc(N2CCOCC2)nc(-c2ccccc2)n1 [Compound 22]
  FOLD ACT. (percent maximum fold activation): A (Fold activation≧300%)
  EC1.5: A (EC1.5≧250 nM and ≦1 uM)

## NCCCCNc1cc(C(=O)Nc2ccccc2-c2nc3cccnc3s2)nc(-c2ccccc2)n1 [Compound 87]
  FOLD ACT. (percent maximum fold activation): A (Fold activation≧300%)
  EC1.5: A (EC1.5≧250 nM and ≦1 uM)

## O=C(Nc1ccccc1-c1nc2cccnc2s1)c1cc(Cl)nc(-c2ccccc2)n1 [Compound 8]
  FOLD ACT. (percent maximum fold activation): C (Fold Activation<150%)
  EC1.5: C (EC1.5>10 uM)

## O=C(Nc1ccccc1-c1nc2cccnc2s1)c1cc(NCCCn2ccnc2)cc(-c2ccccc2)n1 [Compound 141]
  FOLD ACT. (percent maximum fold activation): A (Fold activation≧300%)
  EC1.5: A′ (EC1.5<250 nM)

## CC(C)N1CCC(Nc2cc(C(=O)Nc3ccccc3-c3nc4cccnc4s3)nc(-c3ccccc3)n2)CC1 [Compound 114]
  FOLD ACT. (percent maximum fold activation): A (Fold activation≧300%)
  EC1.5: A′ (EC1.5<250 nM)

## COCCN(C)c1cc(C(=O)Nc2ccccc2-c2nc3cccnc3s2)nc(-c2ccccc2)n1 [Compound 47]
  FOLD ACT. (percent maximum fold activation): A (Fold activation≧300%)
  EC1.5: A′ (EC1.5<250 nM)

## CS(=O)(=O)NCCOc1cc(C(=O)Nc2ccccc2-c2nc3cccnc3s2)nc(-c2ccccc2)n1 [Compound 122]
  FOLD ACT. (percent maximum fold activation): B (Fold Activation≧150% and <300%)
  EC1.5: A (EC1.5≧250 nM and ≦1 uM)

## O=C(Nc1ccccc1-c1nc2cccnc2s1)c1cc(OCCCCO)nc(-c2ccccc2)n1 [Compound 103]
  FOLD ACT. (percent maximum fold activation): B (Fold Activation≧150% and <300%)
  EC1.5: C (EC1.5>10 uM)

## O=C(Nc1ccccc1-c1nc2ccncc2s1)c1cc(NCc2ccccn2)nc(-c2ccccc2)n1 [Compound 57]
  FOLD ACT. (percent maximum fold activation): A (Fold activation≧300%)
  EC1.5: A (EC1.5≧250 nM and ≦1 uM)

## O=C(Nc1ccccc1-c1nc2cccnc2s1)c1cc(OC[C@@H](O)CO)nc(-c2ccccc2)n1 [Compound 108]
  FOLD ACT. (percent maximum fold activation): B (Fold Activation≧150% and <300%)
  EC1.5: A′ (EC1.5<250 nM)

## Cl.O=C(Nc1ccccc1-c1nc2cccnc2s1)c1cc(NCCN2CCCCC2)nc(-c2ccccc2)n1 [Compound 67]
  FOLD ACT. (percent maximum fold activation): A (Fold activation≧300%)
  EC1.5: A′ (EC1.5<250 nM)

## O=C(Nc1ccccc1-c1nc2cccnc2s1)c1cc(N[C@@H]2CCCNC2)nc(-c2ccccc2)n1 [Compound 95]
  FOLD ACT. (percent maximum fold activation): A (Fold activation≧300%)
  EC1.5: A′ (EC1.5<250 nM)

## O=C(Nc1ccccc1-c1nc2cccnc2s1)c1cc(OCCN2CCNCC2)cc(-c2ccccc2)n1 [Compound 14]
  FOLD ACT. (percent maximum fold activation): A (Fold activation≧300%)
  EC1.5: A′ (EC1.5<250 nM)

## COCCNc1cc(C(=O)Nc2ccccc2-c2nc3ccncc3s2)nc(-c2ccccc2)n1 [Compound 27]
  FOLD ACT. (percent maximum fold activation): A (Fold activation≧300%)
  EC1.5: A (EC1.5≧250 nM and ≦1 uM)

## CCN(CC)CCOc1cc(C(=O)Nc2ccccc2-c2nc3cccnc3s2)nc(-c2ccccc2)n1 [Compound 90]
  FOLD ACT. (percent maximum fold activation): A (Fold activation≧300%)
  EC1.5: A (EC1.5≧250 nM and ≦1 uM)

## O=C(Nc1ccccc1-c1nc2cccnc2s1)c1cc(NC[C@H](O)CO)nc(-c2ccccc2)n1 [Compound 105]
  FOLD ACT. (percent maximum fold activation): A (Fold activation≧300%)
  EC1.5: A′ (EC1.5<250 nM)

## CCN1CCC(Nc2cc(C(=O)Nc3ccccc3-c3nc4cccnc4s3)nc(-c3ccccc3)n2)CC1 [Compound 100]
  FOLD ACT. (percent maximum fold activation): A (Fold activation≧300%)
  EC1.5: A′ (EC1.5<250 nM)

## O=C(Nc1ccccc1-c1nc2ccncc2s1)c1cc(NCCN2CCCC2)nc(-c2ccccc2)n1 [Compound 56]
  FOLD ACT. (percent maximum fold activation): A (Fold activation≧300%)
  EC1.5: A′ (EC1.5<250 nM)

## CN(C)CCN(C)c1cc(C(=O)Nc2ccccc2-c2nc3cccnc3s2)nc(-c2ccccc2)n1 [Compound 145]
  FOLD ACT. (percent maximum fold activation): A (Fold activation≧300%)
  EC1.5: A′ (EC1.5<250 nM)

## CC(C)C(=O)N1CCC(Nc2cc(C(=O)Nc3ccccc3-c3nc4cccnc4s3)nc(-c3ccccc3)n2)CC1 [Compound 117]
  FOLD ACT. (percent maximum fold activation): A (Fold activation≧300%)
  EC1.5: A′ (EC1.5<250 nM)

## COCCN(C)c1cc(C(=O)Nc2ccccc2-c2nc3cccnc3s2)nc(-c2ccccc2)c1 [Compound 137]
  FOLD ACT. (percent maximum fold activation): A (Fold activation≧300%)
  EC1.5: A′ (EC1.5<250 nM)
